Data as given in US9808434B2, “Compound for treating cancer and diabetes” (CITY OF HOPE, priority 2011, dated 2017).

Columns and labels:
HL-60 cells = test: HL-60 cell viability, MTT assay; details: for cytotoxicity and cell proliferation: 48 hours, 1-15 μM
Description: Three independent experiments were carried out with 3 duplications each, and data are shown as mean±SE.

[1] = system: cyclin D1, cyclin E2, CDK2, CDK4, p21WAF1/Cip1, p27Kip1; test: HL-60 cell cycle regulatory proteins, Western blot; format: cell-based, human; details: 24 hours, 0.5-3 μM
Description: HL-60 cells were treated without or with COH-SR4 or COH-SR9 at a concentration of 0.5 μM, 1 μM, 2 μM, or 3 μM for 24 hours. Then the total cell lysates from the treated cells or untreated cells were resolved under electrophoresis and immunoblotted with antibodies against cyclin D1, cyclin E2, CDK2, CDK4, p21WAF1/Cip1, p27Kip1, and β-actin. β-actin served as an internal control. Densitometric quantitation was performed on each blot and the arbitrary numbers above each band represent the fold increase/decrease compared with untreated control. […] These kinase inhibitors are known to interfere with cell cycle progression to cause phase-specific cycle arrest by perturbing the phosphorylation process through direct interaction with their target proteins (cyclins or CDK).

[2] = system: HMLE breast cancer cell line; test: HMLE viability, DIMSCAN assay; format: cell-based, human; details: 3 days, 2-50 μM
Description: The effects of COH-SR compounds on breast cancer cells were investigated. Cells from 4T1 or HMLE breast cancer cell line were seeded in 96-well plates (about 2000 cells/well), allowed to proliferate for one day, treated with a COH-SR compound, doxorubicin, paclitaxel, cisplatin, or nothing (control) at a specific dose (3 wells for each treatment) and assayed for cell viability 3 days after using DIMSCAN assay. COH-SR3, COH-SR4, COH-SR9, doxorubicin, paclitaxel, and cisplatin were used at a dosage of 40 nM, 200 nM, 1 μM, 2 μM, 10 μM, or 50 μM for 4T1 breast cancer cell lines. COH-SR14 was used at a dosage of 40 nM, 200 nM, 1 μM, 2 μM, or 10 μM for 4T1 breast cancer cell lines. COH-SR3, COH-SR4, COH-SR9, doxorubicin, paclitaxel, and cisplatin were used at a dosage of 2 μM, 10 μM, or 50 μM for HMLE breast cancer cell lines. COH-SR14 was used at a dosage of 2 μM, or 10 μM for HMLE breast cancer cell lines.

[3] = system: B16-F0 and A2058 melanoma cells; test: TUNEL apoptosis assay, melanoma; format: cell-based; details: 24 h
Description: For TUNEL assay, 1×10^5 cells were grown on the cover slips for ˜12 h followed by treatment with COH-SR4 (5 μM or 10 μM) or elesclomol (5 μM) for 24 h. Apoptosis was determined by the labeling of DNA fragments with terminal deoxynucleotidyl-transferase dUTP nick-end labeling (TUNEL) assay using Promega fluorescence apoptosis detection system, and examined using Zeiss LSM 510 META laser scanning fluorescence microscope with filters 520 and 620 nm according to the protocol described previously (91). Photographs taken at identical exposure at ×400 magnification are presented.

[4] = Metabolic effects in Type 2 diabetes db/db mice; format: in vivo, mouse; details: five weeks
Description: All animal experiments were carried out in accordance with the protocols approved by the Institutional Animal Care and Use Committee of the City of Hope. Nine-week old male C57BL/6J mice fed on high fat diet (HFD, 60% fat) and 10-week old db/db mice were given COH-SR4 (5 mg/kg B.W.) or vehicle (corn oil) via oral gavage every other day for six and five weeks, respectively. Oral glucose tolerance test was performed on animals after an overnight fast. All other metabolic parameters were measured at the end of study. Liver samples were stained with H&E and Oil Red O.
All data represented are mean±SEM. *P<0.05, **P<0.01 vs. LFD or db/+; ^#P<0.05, ^##P<0.01 vs. HFD or db/db. n=12 animals per group for HFD mice. LFD=low fat diet (lean), HFD=high fat diet (obese). n=8 animals per group for db/db mice.
Representative mice in each treatment group (db/+, db/db, db/db treated with COH-SR4 (db/db+SR4)) depicted gross images of whole body shape (top) and abdominal fat (bottom) (FIG. 85H).

A2058 = test: MTT assay, A2058; format: cell-based; details: Homo sapiens, A2058, 96 h
Description: (§1) Cell density measurements were performed using a hemocytometer to count reproductive cells resistant to staining with trypan blue. Approximately 20,000 cells were plated into each well of 96-well flat-bottomed micro-titer plates. After 12 h or 24 h incubation at 37° C., medium containing either COH-SR4 (ranging 0-200 μM) or elesclomol (ranging 0-20 μM) were added to the cells. After 24 h, 48 h or 96 h incubation, 20 μL of 5 mg/mL MTT were introduced to each well and incubated for 2 h. The plates were centrifuged and medium was decanted. Cells were subsequently dissolved in 100 μl DMSO with gentle shaking for 2 h at room temperature, followed by measurement of OD570 (91).

H358 = test: Colony formation assay, H358; format: cell-based, human; details: 1.5 μM
Description: Cell survival was evaluated using a standard colony-forming assay. In total, 1×10^5 cells/mL were incubated with COH-SR4 (1.5 μM or 5 μM) or elesclomol (5 μM) for 24 h, and aliquots of 50 or 100 μL were added to 60 mm size petri dishes, containing 4 mL culture medium. After 7 or 10 days, adherent colonies were fixed, stained with 0.5% methylene blue for 30 min and colonies were counted using the Innotech Alpha Imager HP (91).
The effect of COH-SR4 was first examined in a NCI panel of cancer cell lines, the results of which indicated good activity of COH-SR4 towards lung cancer (FIG. 78A). […] Values are presented as mean±SD from two separate determinations with eight replicates each (n=16) (FIG. 78B). The COH-SR4 treatment exerted a significant inhibitory effect on the survival of lung cancer cells [IC50: H1417 cells-1.2±0.2 μM, H1618 cells-1.5±0.2 μM, H358 cells-2.1±0.2 μM and H520 cells-2.4±0.3 μM]. […] Following initial screening for the anticancer activity of COH-SR4, the effect of COH-SR4 on clonogenic potential was studied. Standard colony-forming assay was performed and the colonies were counted using Innotech Alpha Imager HP. […] The effect of COH-SR4 on induction of apoptosis was further investigated. […] TUNEL assay was performed using Promega fluorescence detection kit and examined using Zeiss LSM 510 META laser-scanning fluorescence microscope with filters 520 and 620 nm. […]

melanoma cells = test: MTT assay, melanoma cell lines of various mutational status; format: cell-based; details: 48 h, regardless of mutational status; read-out: IC50 values across melanoma cell lines
Description: as §1

Row | Compound | cytotoxicity and cell proliferation (HL-60 cells) | IC50 (HL-60 cells; 72 hours incubation) [nM] | protein levels of CDK inhibitors p21WAF1/Cip1 and p27Kip1 [1] | protein levels of cyclin D1, cyclin E2, CDK2 and CDK4 [1] | cytotoxic effects compared with doxorubicin, paclitaxel and cisplatin (FIG. 30) [2] | apoptosis (DNA fragmentation, TUNEL) ([3]; 5 μM) | apoptosis (DNA fragmentation, TUNEL) ([3]; 10 μM) | body weight ([4]; 5 mg/kg oral every other day) | HbA1c levels [4] | fasting blood glucose [4] | glucose tolerance [4] | hepatic steatosis [4] | hepatic triglycerides [4] | IC50 (A2058) [nM] | colony formation (H358) [%] | IC50 (melanoma cells) [nM] | IC50 (HL-60 cells; Homo sapiens, HL-60, 48 h) [nM] | IC50 (HL-60 cells; Homo sapiens, HL-60, 72 h) [nM]
1 | Cc1c(Cl)cc(NC(=O)Nc2cc(Cl)cc(Cl)c2)c(O)c1Cl [COH-SR9, 1-(3,5-dichlorophenyl)-3-(3,5-dichloro-2-hydroxy-4-methyphenyl) urea] | exhibited cytotoxicity and prevented cell proliferation of HL-60 leukemia cells | ~2500 | upregulated | dose-dependent reduction in the protein levels of cyclin D1, cyclin E2, CDK2 and CDK4 | more potent cytotoxic effects |  |  |  |  |  |  |  |  |  |  |  |  | 
2 | O=C(Nc1cc(Cl)cc(Cl)c1)Nc1cc(Cl)cc(Cl)c1 [COH-SR4, 1,3-bis(3,5-dichlorophenyl) urea] | exhibited cytotoxicity and prevented cell proliferation of HL-60 leukemia cells |  | upregulated | dose-dependent reduction in the protein levels of cyclin D1, cyclin E2, CDK2 and CDK4 | more potent cytotoxic effects | induced apoptosis | induced apoptosis | decreased body weight | lower HbA1c levels | improved fasting blood glucose | improved | reduced | reduced hepatic triglycerides | 11000 ± 2000 | 47±7 | 1200 to 4800 | < 5000 | ~1700
